# According to PubChem BioAssay (NCI):
#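 All cell lines were grown in 96-well plates and treated with compound for 48 hours. The concentration for 50% growth inhibition is given as GI50. TGI marks complete inhibition of growth.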
# How the values were obtained:
# Test in all cases: NCI-60 cell line screen, 48 h
# 786-0 renal = test system: 786-0 renal
# A498 renal = test system: A498 renal
# A549 NSCLC = test system: A549 NSCLC
# ACHN renal = test system: ACHN renal
# BT-549 breast = test system: BT-549 breast
# CAKI-1 renal = test system: CAKI-1 renal
# CCRF-CEM leukemia = test system: CCRF-CEM leukemia
# COLO 205 colon = test system: COLO 205 colon
# DU-145 prostate = test system: DU-145 prostate
# EKVX NSCLC = test system: EKVX NSCLC
# HCC-2998 colon = test system: HCC-2998 colon
# HCT-116 colon = test system: HCT-116 colon
# HCT-15 colon = test system: HCT-15 colon
# HL-60(TB) leukemia = test system: HL-60(TB) leukemia
# HOP-62 NSCLC = test system: HOP-62 NSCLC
# HOP-92 NSCLC = test system: HOP-92 NSCLC
# HS 578T breast = test system: HS 578T breast
# HT29 colon = test system: HT29 colon
# IGROV1 ovarian = test system: IGROV1 ovarian
# K-562 leukemia = test system: K-562 leukemia
# KM12 colon = test system: KM12 colon
# LOX IMVI melanoma = test system: LOX IMVI melanoma
# M14 melanoma = test system: M14 melanoma
# MALME-3M melanoma = test system: MALME-3M melanoma
# MCF7 breast = test system: MCF7 breast
# MDA-MB-231 breast = test system: MDA-MB-231 breast
# MDA-MB-435 = test system: MDA-MB-435
# MDA-N = test system: MDA-N
# MOLT-4 leukemia = test system: MOLT-4 leukemia
# NCI-H226 lung = test system: NCI-H226 lung
# NCI-H23 lung = test system: NCI-H23 lung
# NCI-H460 lung = test system: NCI-H460 lung
# NCI-H522 lung = test system: NCI-H522 lung
# NCI/ADR-RES ovarian = test system: NCI/ADR-RES ovarian
# OVCAR-3 ovarian = test system: OVCAR-3 ovarian
# OVCAR-4 ovarian = test system: OVCAR-4 ovarian
# OVCAR-5 ovarian = test system: OVCAR-5 ovarian
# OVCAR-8 ovarian = test system: OVCAR-8 ovarian
# PC-3 prostate = test system: PC-3 prostate
# RPMI-8226 leukemia = test system: RPMI-8226 leukemia
# RXF 393 renal = test system: RXF 393 renal
# SF-268 CNS = test system: SF-268 CNS
# SF-295 CNS = test system: SF-295 CNS
# SF-539 CNS = test system: SF-539 CNS
# SK-MEL-2 melanoma = test system: SK-MEL-2 melanoma
# SK-MEL-28 melanoma = test system: SK-MEL-28 melanoma
# SK-MEL-5 melanoma = test system: SK-MEL-5 melanoma
# SK-OV-3 ovarian = test system: SK-OV-3 ovarian
# SN12C renal = test system: SN12C renal
# SNB-19 CNS = test system: SNB-19 CNS
# SNB-75 CNS = test system: SNB-75 CNS
# SR leukemia = test system: SR leukemia
# SW-620 colon = test system: SW-620 colon
# T-47D breast = test system: T-47D breast
# TK-10 renal = test system: TK-10 renal
# U251 CNS = test system: U251 CNS
# UACC-257 melanoma = test system: UACC-257 melanoma
# UACC-62 melanoma = test system: UACC-62 melanoma
# UO-31 renal = test system: UO-31 renal
structure (smiles),measurement,setting,value
CCOC(=O)CC[C@H](N)C(=O)N[C@@H](Cc1ccc(N(CCCl)CCCl)cc1)C(=O)OCC,TGI,786-0 renal,2.51 µM
same,TGI,A498 renal,42 µM
same,TGI,A549 NSCLC,> 48.9 µM
same,TGI,ACHN renal,1.72 µM
same,TGI,BT-549 breast,22.3 µM
same,TGI,CAKI-1 renal,4.39 µM
same,TGI,CCRF-CEM leukemia,4.5 µM
same,TGI,COLO 205 colon,2.3 µM
same,TGI,DU-145 prostate,5.56 µM
same,TGI,EKVX NSCLC,6.11 µM
same,TGI,HCC-2998 colon,2.59 µM
same,TGI,HCT-116 colon,4.09 µM
same,TGI,HCT-15 colon,3.86 µM
same,TGI,HL-60(TB) leukemia,1.33 µM
same,TGI,HOP-62 NSCLC,9.94 µM
same,TGI,HOP-92 NSCLC,1.62 µM
same,TGI,HS 578T breast,4.92 µM
same,TGI,HT29 colon,4.19 µM
same,TGI,IGROV1 ovarian,4.75 µM
same,TGI,K-562 leukemia,> 33 µM
same,TGI,KM12 colon,11.6 µM
same,TGI,LOX IMVI melanoma,2.94 µM
same,TGI,M14 melanoma,1.59 µM
same,TGI,MALME-3M melanoma,0.823 µM
same,TGI,MCF7 breast,15.5 µM
same,TGI,MDA-MB-231 breast,4.41 µM
same,TGI,MDA-MB-435,2.83 µM
same,TGI,MDA-N,2.57 µM
same,TGI,MOLT-4 leukemia,3.61 µM
same,TGI,NCI-H226 lung,28.8 µM
same,TGI,NCI-H23 lung,1.35 µM
same,TGI,NCI-H460 lung,2.48 µM
same,TGI,NCI-H522 lung,2.54 µM
same,GI50,NCI/ADR-RES ovarian,3.7 µM
same,TGI,NCI/ADR-RES ovarian,21.1 µM
same,TGI,OVCAR-3 ovarian,1.82 µM
same,TGI,OVCAR-4 ovarian,1.41 µM
same,TGI,OVCAR-5 ovarian,6.78 µM
same,GI50,OVCAR-8 ovarian,0.564 µM
same,TGI,OVCAR-8 ovarian,1.99 µM
same,TGI,PC-3 prostate,7.46 µM
same,TGI,RPMI-8226 leukemia,28.4 µM
same,TGI,RXF 393 renal,2.14 µM
same,TGI,SF-268 CNS,7.07 µM
same,TGI,SF-295 CNS,14.8 µM
same,TGI,SF-539 CNS,2.8 µM
same,TGI,SK-MEL-2 melanoma,5.28 µM
same,TGI,SK-MEL-28 melanoma,2.38 µM
same,TGI,SK-MEL-5 melanoma,3.13 µM
same,TGI,SK-OV-3 ovarian,4.99 µM
same,TGI,SN12C renal,9.22 µM
same,TGI,SNB-19 CNS,18.1 µM
same,TGI,SNB-75 CNS,4.44 µM
same,TGI,SR leukemia,> 42.2 µM
same,TGI,SW-620 colon,5.87 µM
same,TGI,T-47D breast,8.49 µM
same,TGI,TK-10 renal,4.26 µM
same,TGI,U251 CNS,7.39 µM
same,TGI,UACC-257 melanoma,5.09 µM
same,TGI,UACC-62 melanoma,1.84 µM
same,TGI,UO-31 renal,3.44 µM
